Results as given in ChEMBL document CHEMBL1201862, “PubChem BioAssay data set” (2004).
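Growth conditions: 96-well plates. Treatment: test compound, 48 hours, 5 concentrations. Analysis: linear interpolation between bracketing concentrations; unreached endpoints set to highest concentration. GI50: concentration for 50% inhibition of growth.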 Active and inactive are the calls of the source. Cut-off read from the data, not from the text of the source: active = GI50 up to about 1.1 µM and inactive = higher.

What was measured:
Test in all cases: inhibition of tumour cell growth, NCI panel, 48 h
MOLT-4 = tested on: MOLT-4
PC-3 = tested on: PC-3
UACC-257 = tested on: UACC-257
SF-268 = tested on: SF-268
LOX IMVI = tested on: LOX IMVI
SR = tested on: SR
HCC 2998 = tested on: HCC 2998
OVCAR-4 = tested on: OVCAR-4
786-0 = tested on: 786-0
RXF 393 = tested on: RXF 393
COLO 205 = tested on: COLO 205
Malme-3M = tested on: Malme-3M
CCRF-CEM = tested on: CCRF-CEM
NCI-H23 = tested on: NCI-H23
RPMI-8226 = tested on: RPMI-8226
SF-295 = tested on: SF-295
TK-10 = tested on: TK-10
SNB-19 = tested on: SNB-19
HT-29 = tested on: HT-29
OVCAR-8 = tested on: OVCAR-8
HOP-62 = tested on: HOP-62
MDA-MB-435 = tested on: MDA-MB-435
HCT-15 = tested on: HCT-15
Hs-578T = tested on: Hs-578T
UO-31 = tested on: UO-31
ACHN = tested on: ACHN
HL-60 = tested on: HL-60
SW-620 = tested on: SW-620
A549 = tested on: A549
HCT-116 = tested on: HCT-116
IGROV-1 = tested on: IGROV-1
SK-MEL-28 = tested on: SK-MEL-28
NCI-H460 = tested on: NCI-H460
NCI/ADR-RES = tested on: NCI/ADR-RES
NCI-H522 = tested on: NCI-H522
T47D = tested on: T47D
SK-OV-3 = tested on: SK-OV-3
SN12C = tested on: SN12C
M14 = tested on: M14
NCI-H226 = tested on: NCI-H226
SK-MEL-2 = tested on: SK-MEL-2
EKVX = tested on: EKVX
KM12 = tested on: KM12
OVCAR-3 = tested on: OVCAR-3
CAKI-1 = tested on: CAKI-1
UACC-62 = tested on: UACC-62
OVCAR-5 = tested on: OVCAR-5
MDA-N = tested on: MDA-N
HOP-92 = tested on: HOP-92
DU-145 = tested on: DU-145
K562 = tested on: K562
MDA-MB-231 = tested on: MDA-MB-231
SK-MEL-5 = tested on: SK-MEL-5
U-251 = tested on: U-251
SF-539 = tested on: SF-539
A498 = tested on: A498
SNB-75 = tested on: SNB-75

In the case of `N#Cc1c(N2CCCC2)nsc1Nc1ccc(F)cc1`, the GI50 (MOLT-4) is reported as > 100 µM (inactive), the GI50 (PC-3) is reported as > 100 µM (inactive) and the GI50 (UACC-257) is reported as > 100 µM (inactive). For the same compound, the GI50 (SF-268) was > 100 µM (inactive), the GI50 (LOX IMVI) was > 100 µM (inactive) and the GI50 (SR) was > 100 µM (inactive). The GI50 (HCC 2998) was > 100 µM (inactive), the GI50 (OVCAR-4) was > 100 µM (inactive) and the GI50 (786-0) was > 100 µM (inactive). The GI50 (RXF 393) was > 100 µM (inactive), the GI50 (COLO 205) was > 100 µM (inactive) and the GI50 (Malme-3M) was > 100 µM (inactive). For the same compound, the GI50 (CCRF-CEM) was > 100 µM (inactive), the GI50 (NCI-H23) was > 100 µM (inactive) and the GI50 (RPMI-8226) was > 100 µM (inactive). For the same compound, the GI50 (SF-295) was > 100 µM (inactive), the GI50 (TK-10) was > 100 µM (inactive) and the GI50 (SNB-19) was > 100 µM (inactive). For the same compound, the GI50 (HT-29) was > 100 µM (inactive), the GI50 (OVCAR-8) was 78 µM (inactive) and the GI50 (HOP-62) was > 100 µM (inactive). For the same compound, the GI50 (MDA-MB-435) was > 100 µM (inactive), the GI50 (HCT-15) was over 100 µM and the GI50 (Hs-578T) was > 100 µM (inactive). For the same compound, the GI50 (UO-31) was > 10 µM (inactive), the GI50 (ACHN) was > 100 µM (inactive) and the GI50 (HL-60) was > 100 µM (inactive). The GI50 (SW-620) was > 100 µM (inactive), the GI50 (A549) was > 100 µM (inactive) and the GI50 (HCT-116) was > 100 µM (inactive). The GI50 (IGROV-1) was > 100 µM (inactive), the GI50 (SK-MEL-28) was > 100 µM (inactive) and the GI50 (NCI-H460) was > 100 µM (inactive). For the same compound, the GI50 (NCI/ADR-RES) was > 100 µM (inactive), the GI50 (NCI-H522) was 57.9 µM (inactive) and the GI50 (T47D) was > 100 µM (inactive). The GI50 (SK-OV-3) was 61.2 µM (inactive), the GI50 (SN12C) was > 100 µM (inactive) and the GI50 (M14) was > 100 µM (inactive). The GI50 (NCI-H226) was > 100 µM (inactive), the GI50 (SK-MEL-2) was > 100 µM (inactive) and the GI50 (EKVX) was 19.7 µM (inactive). For the same compound, the GI50 (KM12) was > 100 µM (inactive), the GI50 (OVCAR-3) was > 100 µM (inactive) and the GI50 (CAKI-1) was 97.1 µM (inactive). For the same compound, the GI50 (UACC-62) was > 100 µM (inactive), the GI50 (OVCAR-5) was > 100 µM (inactive) and the GI50 (MDA-N) was > 100 µM (inactive). The GI50 (HOP-92) was > 100 µM (inactive), the GI50 (DU-145) was > 100 µM (inactive) and the GI50 (K562) was > 100 µM (inactive). For the same compound, the GI50 (MDA-MB-231) was > 100 µM (inactive), the GI50 (SK-MEL-5) was > 100 µM (inactive) and the GI50 (U-251) was > 100 µM (inactive). For the same compound, the GI50 (SF-539) was > 100 µM (inactive) and the GI50 (A498) was > 100 µM (inactive).
With `CN(C)CCCN1c2ccc([N+](=O)[O-])cc2CCc2cc([N+](=O)[O-])ccc21` the GI50 (MOLT-4) was 14.5 µM (inactive), the GI50 (PC-3) was 16.4 µM (inactive) and the GI50 (UACC-257) was 15.2 µM (inactive). For the same compound, the GI50 (SF-268) was 15.4 µM (inactive), the GI50 (LOX IMVI) was 16.9 µM (inactive) and the GI50 (HCC 2998) was 9.84 µM (inactive). The GI50 (786-0) was 12.1 µM (inactive), the GI50 (RXF 393) was 6.98 µM (inactive) and the GI50 (COLO 205) was 14.9 µM (inactive). The GI50 (Malme-3M) was 10.3 µM (inactive), the GI50 (RPMI-8226) was 20.4 µM (inactive) and the GI50 (SF-295) was 15.6 µM (inactive). For the same compound, the GI50 (TK-10) was 11.3 µM (inactive), the GI50 (SNB-19) was 17.8 µM (inactive) and the GI50 (HT-29) was 14.8 µM (inactive). The GI50 (OVCAR-8) was 15.5 µM (inactive), the GI50 (HOP-62) was 16 µM (inactive) and the GI50 (MDA-MB-435) was 13.4 µM (inactive). For the same compound, the GI50 (HCT-15) was 16.7 µM, the GI50 (Hs-578T) was 15.2 µM (inactive) and the GI50 (UO-31) was 22.5 µM (inactive). For the same compound, the GI50 (ACHN) was 11.4 µM (inactive), the GI50 (HL-60) was 13.6 µM (inactive) and the GI50 (SW-620) was 15.3 µM (inactive). The GI50 (A549) was 17.9 µM (inactive), the GI50 (HCT-116) was 14.4 µM (inactive) and the GI50 (IGROV-1) was 14.9 µM (inactive). For the same compound, the GI50 (SK-MEL-28) was 15.3 µM (inactive), the GI50 (NCI-H460) was 15.1 µM (inactive) and the GI50 (NCI/ADR-RES) was 14.3 µM (inactive). The GI50 (NCI-H522) was 16.9 µM (inactive), the GI50 (T47D) was 15.6 µM (inactive) and the GI50 (SK-OV-3) was 17.2 µM (inactive). For the same compound, the GI50 (SN12C) was 15.8 µM (inactive), the GI50 (M14) was 16.7 µM (inactive) and the GI50 (NCI-H226) was 15.1 µM (inactive). For the same compound, the GI50 (SNB-75) was 12.3 µM (inactive), the GI50 (SK-MEL-2) was 20.7 µM (inactive) and the GI50 (EKVX) was 14.1 µM (inactive). For the same compound, the GI50 (KM12) was 14.8 µM (inactive), the GI50 (OVCAR-3) was 15.5 µM (inactive) and the GI50 (UACC-62) was 13.5 µM (inactive). The GI50 (OVCAR-5) was 13.7 µM (inactive), the GI50 (MDA-N) was 13.8 µM (inactive) and the GI50 (HOP-92) was 5.26 µM (inactive). For the same compound, the GI50 (DU-145) was 16.6 µM (inactive), the GI50 (K562) was 19.4 µM (inactive) and the GI50 (MDA-MB-231) was 15.9 µM (inactive). For the same compound, the GI50 (SK-MEL-5) was 15.7 µM (inactive), the GI50 (U-251) was 16.2 µM (inactive) and the GI50 (SF-539) was 15.7 µM (inactive).
